Experimental data from patent US12037350B2, “Compositions and methods for the prevention and/or treatment of mitochondrial disease, including Friedreich's ataxia” (Stealth BioTherapeutics Inc., priority 2020, dated 2024).
Entries after “also recorded” stand apart in the source; their conditions may differ.

Columns and labels:
[1] = system: HepG2 cells; test: Rotenone Oxygraph Assay (high-resolution respirometry of intact HepG2 cells); type: cell-based, human; settings: for activation at 10 µM: Homo sapiens
Procedure: Example 15: Rotenone Oxygraph Assay (High-Resolution Respirometry of Intact HepG2 Cells)
The Oxygraph-2k (O2k, OROBOROS INSTRUMENTS, Austria) was used for measurements of respiration of intact cells. The respirometry was performed in Dulbecco's Modified Eagle Medium (DMEM) high glucose without supplements. All experiments were performed at 37° C.
HepG2 cells (ATCC collection code HB-8065™) were cultured in 10 cm^2 culture dishes in DMEM high glucose medium supplemented with 10% fetal bovine serum (FBS) and 100 units/mL penicillin and 100 μg/mL streptomycin until approximately 90% confluence was reached. Immediately prior to performing the respirometric assay, the cells were washed with media without FBS, trypsinized and resuspended in DMEM high glucose without FBS.
The final concentration of intact cells in the O2k-chamber was 0.5-10^6/mL. After stabilization of respiration, the Complex I inhibitor, rotenone, at 1 μM final concentration was added to inhibit electron flux via Complex I. Then, compound to be tested was added at 10 μM final concentration, and the change in respiration rate of intact cells was monitored. […]

[2] = system: frataxin deficient fibroblasts (GM03665) from Friedreich's ataxia patient; test: Frataxin Deficient Fibroblast Viability Assay (BSO Assay); type: cell-based; settings: for protection against BSO induced cell death (in words): BSO Assay, text statement; for EC50: Homo sapiens, Fibroblast, FA patient fibroblasts pretreated with compound, BSO 10 mM, MTT after 48 hrs
Procedure: Example 12: Frataxin Deficient Fibroblast Viability Assay (the “BSO Assay”)
This Example was used to evaluate the various new compositions for their potential efficacy in the treatment of Friedreich's Ataxia (FA or FRDA)—substantially as described in the above cited Reference (Matthias et al.).
The stock solutions of the test articles (and control compounds) were prepared in dimethyl sulfoxide (DMSO at 10 mM), Working stock solutions (2 times concentrated) were prepared on the day of the experiment in respective cell culture medium to be used for assay (detailed medium description below). A listing of compounds used as test articles in this Example 12 are found in Table 1, below.
A patient derived frataxin deficient fibroblast cell line was obtained from Coriell Institute. More specifically, the following cell lines/DNA samples were obtained from the NIGMS Human Genetic Cell Repository at the Coriell Institute for Medical Research: GM03665. To evaluate importance of various growth conditions on cell susceptibility to BSO toxicity cells were grown on:
MEM (Sigma-Aldrich) 15% Fetal Bovine Serum (FBS) without growth factors;
MEM (Sigma-Aldrich) 15% FBS with growth factors (Catalogue number 100-18B, Recombinant Human FGF-basic (154 a.a.) and catalogue number AF-100-15, Animal-Free Recombinant Human EGF from Peprotech);
MEM199/MEM EBS (Bioconcept Ltd.) 10% FBS, insulin 10 μg/ml, L-glutamine 2 mM with growth factors (Catalogue number 100-18B, Recombinant Human FGF-basic (154 a.a.) and catalogue number AF-100-15, Animal-Free Recombinant Human EGF from Peprotech).
To conduct an experiment, fibroblast cells (from all growth conditions) were seeded (100 μL (cells 3×10^3/well) on 96-well plates in MEM199/MEM EBS medium 10% FBS, insulin 10 μg/mL, L-glutamine 2 mM with growth factors and allowed to grow on plate for 24 hrs. After 24 hrs., media was removed and then test compounds of interest were added (100 μL, 2 times concentrated stock) to 96-well plates (end DM80 concentration not exceeding 0.5%) and incubated for 24 hours. Then L-buthionine-sulfoximine (BSO, from Acros Organics, Cat. No. 235520010) was added (100 μL, 2 times concentrated stock) at end concentrations ranging from 1 to 10 mM. Both test compounds and BSO were dissolved in MEM199/MEM EBS medium 10% FBS, insulin 10 μg/mL, L-glutamine 2 mM with growth factors. Cell viability was monitored and either after 24- or 48-hours cell viability was assayed by MTT (Thiazolyl blue tetrazolium bromide) assay. For the MTT assay, media was removed and 100 μL of MTT 1 mg/mL was added, incubated for 2 hours at +37° C., then medium was removed and 100 μL of isopropanol added to dissolve sediment. Absorption was measured at 570 (OD570) and 650 (QD650) nm wavelengths. Control cells (vehicle instead of BSO and compound) and vehicle control (with BSO, but vehicle instead of test compound) were treated in the same manner as ceils with BSO and compound. All cell media contained penicillin and streptomycin 100 U/mL each.
Absorption readouts were processed as follows: ValueΔ=ValueOD570−ValueOD650 and the obtained values were used to calculate cell viability as % of control cell (i.e., no BSO, no compound, just vehicle) viability.
Except as otherwise indicated in Table 1, all samples were run in at least 3 replicates for test compounds and at least 8 replicates for controls (i.e., both control (no BSO, no compound) and vehicle control (i.e., with BSO, no compound). Exact N per data points are indicated in the figures/table legends. Results for the compounds (test articles and controls) tested are listed in Table 1, below.
This is a cell-based assay measuring cytotoxicity which results from oxidative stress subsequent to depletion of endogenous glutathione defense mechanisms. The cells were primary Friedreich Ataxia (FA) patient fibroblasts which were incubated for 48 hrs. in BSO, an inhibitor of gamma glutamyl synthetase, an enzyme required for glutathione production. […]

[3] = intact HepG2 cells, rotenone 1 μM, compound 10 μM, increase in respiration rate

CC1(C)CC[C@]2(NC(=O)C(C)(F)F)CC[C@]3(C)[C@H](C(=O)C=C4[C@@]5(C)C=C(C#N)C(=O)C(C)(C)[C@@H]5CC[C@]43C)[C@@H]2C1 [Omaveloxolone, reference compound]
Complex I by-pass activity in Rotenone Oxygraph Assay (in words) [1]: inactive
Rotenone Oxygraph Assay % Increase [1, 3]: Inactive
protection against BSO induced cell death (in words) [2]: roughly equivalent in protection as compared with Vatiquinone
protection against BSO induced cell death (in words) ([2]; listed as omaveloxolone): displayed anti-ferroptotic activity
EC50 [2]: 149 nM

COC1=C(OC)C(=O)C(CCCCF)=C(C)C1=O [Compound J, 2-(4-fluorobutyl)-5,6-dimethoxy-3-methylcyclohexa-2,5-diene-1,4-dione]
Complex I by-pass activity in Rotenone Oxygraph Assay (in words) [1]: not that effective; also recorded: least active
activation at 10 µM [1, 3]: 21.8%
protection against BSO induced cell death (in words) [2]: not that effective
EC50 [2]: > 1000 nM

COC1=C(OC)C(=O)C(CCCCCCCCCC(F)(F)F)=C(C)C1=O [Compound C, 2,3-dimethoxy-5-methyl-6-(10,10,10-trifluorodecyl)cyclohexa-2,5-diene-1,4-dione]
Complex I by-pass activity in Rotenone Oxygraph Assay (in words) [1]: effective in rescuing cells
activation at 10 µM [1, 3]: 63.9%
protection against BSO induced cell death (in words) [2]: best of the test compounds
EC50 [2]: 128 nM
